Experimental data reported in US7645740B2, “Peptide sequence found in Laminin 5 for treating skin impairments” (Laboratoires d'Anjou Centre National de la Recherche …, priority 2004, dated 2010).

Columns and labels:
[1] = tested on: HT1080 cells (human fibrosarcoma); test: Cell adhesion test to immobilized peptides, HT1080; assay type: cell-based; conditions: HT1080, 0 to 10 micrograms immobilized peptide, 8×10^4 cells per well, 1 hour 37° C., absorbance 570 nm
Description: (§1) Dose-dependent cell adhesion of cell line HT1080 to various peptides 1, 2 and 3. The peptides were immobilized in 96-well plates at the concentrations given on the abscissa. 8×10^4 cells were deposited in each well and plates were incubated at 37° C. for 1 hour. After washing, attached cells were fixed and cell adhesion was measured as described in the methodology section.
Dose-dependent cell adhesion of HT1080 cells to various peptide TALRIRATYGEY (SEQ ID NO. 1). The peptides were immobilized in 96-well plates in the quantities given on the abscissa. 8×10^4 cells and 15×10^4 cells were deposited in each well and plates were incubated at 37° C. for 1 hour. After washing, attached cells were fixed and cell adhesion was measured as described in the methodology section. Cells were observed by phase contrast microscopy then photographed. Bar =50 μm
(§2) Peptides 1, 2 and 3 were used for the cell adhesion experiments. A range of 7 decreasing concentrations (100 micrograms/ml, 50 micrograms/ml, 25 micrograms/ml, 12.5 micrograms/ml, 6.25 micrograms/ml, 3.125 micrograms/ml and 1.562 micrograms/ml) was made up by successive dilution in PBS (Phosphate Buffer Saline, KH2PO4 1.54 mM; Na2HPO4 1.42 mM; NaCl-131 mM) using a starting solution at a concentration of 1 mg/ml. These solutions were immediately distributed onto a 96-well culture plate (Greinher, Dutscher, Brumath, France) at a rate of 100 μl per well. Plates were then placed at +4° C. for 16 to 18 hours. The solutions were then removed by turning the plates and each well was saturated with a 1% PBS-BSA solution (bovine serum albumin). Three additional wells without the substrate underwent the same treatment and were used as blanks.
(§3) Epithelial cells were detached from the culture dishes using a trypsin/EDAT solution (0.05-0.02%) then suspended in DMEM medium without additives for the cell lines and in KBM-2 without additive for human keratinocytes. The number of seeded cells per well is given in the graphs (50,000 to 100,000 cells per well).
(§4) After cell seeding, the multi-well plates were placed in an incubator at 37° C. under 5% CO2. After incubation for 30 to 60 minutes, cells were observed under a phase contrast microscope in order to verify that the test was conducted correctly. The adhesion medium was then removed and each well was washed in a sterile PBS solution to remove non-adhering cells. The remaining cells, attached to the substrate, were then fixed using a solution of 1% glutaraldehyde in PBS for 15 minutes. The glutaraldehyde solution as removed and the cells were stained with a crystal violet solution diluted to 1% in distilled water for 30 minutes.
After rinsing in water several times, cells were permeabilized by means of a 0.02% triton solution for 15 minutes in order to solubilize the crystal violet. Absorbances were read at 570 nm using an ELISA plate reader (MR500, Dynatech, Guernsey, Channel Islands). Each experimental point was carried out in triplicate. The blank value represented the mean absorbance of 3 control wells (BSA). […] We then calculated the mean for the three absorbance values for each of the triplicate samples.
The results are presented in the form of a graph with the absorbance values on the ordinate and the various substrate concentrations on the abscissa. […]
A second approach was taken in order to determine the minimum quantity of active peptide and the number of adhering cells was increased in order to obtain a confluent cell network. […]

[2] = tested on: A431 cells (skin epitheloids); test: Cell adhesion test to immobilized peptides, A431; assay type: cell-based; conditions: A431, 0 to 10 micrograms immobilized peptide, 8×10^4 cells per well, 1 hour 37° C., absorbance 570 nm
Description: as §1, with “A431” for “HT1080”
as §2, §3, §4
(§5) After rinsing in water several times, cells were permeabilized by means of a 0.02% triton solution for 15 minutes in order to solubilize the crystal violet. Absorbances were read at 570 nm using an ELISA plate reader (MR500, Dynatech, Guernsey, Channel Islands). Each experimental point was carried out in triplicate. The blank value represented the mean absorbance of 3 control wells (BSA). This was subtracted from each of the optical density values for the experimental points. We then calculated the mean for the three absorbance values for each of the triplicate samples.
(§6) The results are presented in the form of a graph with the absorbance values on the ordinate and the various substrate concentrations on the abscissa. Attached cells were photographed by phase contrast microscopy.
(§7) The following cells from epithelial cell lines were used initially (commonly used in preliminary studies on cell adhesion): • line HT1080 cells (human fibrosarcoma), American Type Culture Collection CCL-121. • line HB100 cells (human mammary epithelium), American Type Culture Collection HTB-124. • line A431 cells (skin epitheliods), American Type Culture Collection CRL-1555.

NHKs [3] = test: Cell adhesion of NHKs to peptides co-immobilized with laminin 5; assay type: cell-based, human; conditions: laminin 5 fixed quantity 0.2 mg, 50,000 cells per well, percentage of LN5 alone
Description: Peptides 1, 2 and 3 (variable quantities indicated) and laminin 5 (fixed quantity 0.2 mg) were co-immobilized in 96-well plates. 5×104 NHKs were deposited in each well and plates were incubated at 37° C. for 1 hour. After washing, attached cells were fixed and cell adhesion was measured as described in the methodology section. Cell adhesion in the presence of the peptide is given as a percentage of cell adhesion obtained with laminin 5 alone. Cells were observed by phase contrast microscopy then photographed. Bar=50 μm.
(§8) A decreasing range of LN5 (prepared in the laboratory) and COL4 (BD Biosciences, Le Pont de Claix, France) quantities was made up by successive dilution in PBS. These solutions were immediately distributed into a 96-well culture plate (Costar) at a rate of 100 μl per well. The experiment was conducted in exactly the same way as the experiment described in example 2. The results are given in the form of a graph with the absorbance values representing adhesion on the ordinate and the various substrate concentrations on the abscissa. Attached cells were photographed by phase contrast microscopy.
In order to analyse the effect of the peptide on cell adhesion to DEJ proteins, peptide TALRIRATYGEY (SEQ ID NO.1) (peptide 1) was co-immobilized with LN5 (FIG. 14) and COL4 (FIG. 15). The fixed quantity of matrix protein (LN5 and COL4) and the variable quantity of peptide are given on the graph (FIGS. 14 and 15). Peptides 2 and 3 (described in example 1) were used as controls for the experiment. The adhesion tests were carried out with NHK under the same conditions as the experiment given in FIG. 13 (50,000 cells per well). A peptide-free control representing 100% adhesion (LN5 only and COL4 only) was used to allow analysis of the effect of adhesion relating to the presence of the peptide. The results are given as a percentage of this control.

[4] = tested on: normal human keratinocytes; test: Cell adhesion test to immobilized peptides, normal human keratinocytes; assay type: cell-based; conditions: 0 to 10 micrograms immobilized peptide, 10^5 cells per well, 1 hour 37° C., absorbance 570 nm
Description: as §1, with “normal human keratinocytes” for “cell line HT1080”, “10^5” for “8×10^4”
as §2, §3, §4, §5, §6
Freshly isolated normal human keratinocytes were used in a second experiment. As the basal keratinocytes of the epidermis are in direct contact with LN-5 in the skin, it was necessary to test their adhesion capacity to the peptide in question. Human keratinocytes were obtained from a foreskin biopsy (surgery waste, Pavillon T-Bis, Eduard Herriot Hospital). […]

[5] = tested on: HBL100 cells (human mammary epithelium); test: Cell adhesion test to immobilized peptides, HBL100; assay type: cell-based; conditions: HBL100, 0 to 10 micrograms immobilized peptide, 8×10^4 cells per well, 1 hour 37° C., absorbance 570 nm
Description: as §1, with “HBL100” for “HT1080”
as §2, §3, §4, §5, §6, §7

NHKs [6] = test: Cell adhesion of NHKs to laminin 5 and collagen IV substrates; assay type: cell-based, human; conditions: 0 to 2 micrograms per well, 5×10^4 NHKs per well, 1 hour 37° C.
Description: (A) Diagrammatic representation of laminin 5 and collagen IV in the dermo-epidermal junction (DEJ). (B) Dose-dependent cell adhesion of NHKS to laminin 5 and collagen IV. laminin 5 and collagen IV were fixed to 96-well plates in the quantities given on the abscissa. 5×10^4 NHKs were deposited in each well and plates were incubated at 37° C. for 1 hour. After washing, attached cells were fixed and cell adhesion was measured as described in the methodology section.
as §8

DVKNLENIRDNL (Human laminin 5) [Peptide 3, control peptide from the terminal carboxy end of the gamma 2 chain of laminin 5, position 1169-1180, reference compound]
cell adhesion to immobilized peptide [1]: did not lead to any adhesion
cell adhesion to immobilized peptide [2]: did not lead to any adhesion
effect on adhesion of NHKs to LN5 (co-immobilized) (NHKs [3]): do not modify adhesion
cell adhesion to immobilized peptide [4]: did not lead to any adhesion
cell adhesion to immobilized peptide [5]: did not lead to any adhesion

GLTKTYTFRLNE (Human laminin 5) [Peptide 2, control peptide from the gamma 2 chain of laminin 5, position 309-321, reference compound]
cell adhesion to immobilized peptide [1]: did not lead to any adhesion
cell adhesion to immobilized peptide [2]: did not lead to any adhesion
effect on adhesion of NHKs to LN5 (co-immobilized) (NHKs [3]): do not modify adhesion
cell adhesion to immobilized peptide [4]: did not lead to any adhesion
cell adhesion to immobilized peptide [5]: did not lead to any adhesion

LN5: laminin 5, dermo-epidermal junction glycoprotein, prepared in the laboratory, used as adhesion substrate
adhesion of NHKs to substrate protein (NHKs [6]): much better substrate
